From the supplement of paper PMC5908809

What was measured:
[1] = test system: normal primary NK cells, pool 3 (3 donors) (IL-2 2.5 ng/mL); assay: percent inhibition of viability; higher = more inhibition; conditions: 72 h
IMC-1 (IL-2 20 ng/mL) [2] = assay: as above; conditions: 72 h
[3] = test system: normal primary NK cells, pool 1 (3 donors) (IL-2 2.5 ng/mL); assay: as above; conditions: 72 h
KHYG-1 (IL-2 2.5 ng/mL) [4] = assay: as above; conditions: 72 h
NK-YS (IL-2 2.5 ng/mL) [5] = assay: as above; conditions: 72 h
DERL-7 (IL-2 2.5 ng/mL) [6] = assay: as above; conditions: 72 h
[7] = test system: normal primary NK cells, pool 1 (3 donors), resting (IL-2 0 ng/mL); assay: as above; conditions: 72 h
KAI3 (IL-2 2.5 ng/mL) [8] = assay: as above; conditions: 72 h
NK-92 (IL-2 2.5 ng/mL) [9] = assay: as above; conditions: 72 h
YT (IL-2 2.5 ng/mL) [10] = assay: as above; conditions: 72 h
[11] = test system: normal primary NK cells, pool 2 (3 donors) (IL-2 2.5 ng/mL); assay: as above; conditions: 72 h
NKL (IL-2 2.5 ng/mL) [12] = assay: as above; conditions: 72 h
SNK-6 (IL-2 2.5 ng/mL) [13] = assay: as above; conditions: 72 h
[14] = test system: normal NK cells expanded with K562-aAPC; assay: drug sensitivity score (DSS) (DSS units); higher = more sensitive; extreme values may be limits of the assay; conditions: 72 h; IL-2 2.5 ng/mL
Method: (§1)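 Drug sensitivity and resistance testing on K562-aAPC-expanded normal NK cells: 5 concentrations (10-fold steps over a 10,000-fold range), 72 h at 37 °C, viability by CellTiter-Glo normalised to DMSO and benzethonium chloride controls; DSS from the fitted curve.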

[15] = test system: normal NK cells expanded with K562-aAPC; assay: percent inhibition of viability; higher = more inhibition; conditions: 72 h, IL-2 2.5 ng/mL
Method: as §1

[16] = test system: normal primary NK cells, pool 3 (3 donors) (IL-2 2.5 ng/mL); assay: drug sensitivity score (DSS) (DSS units); higher = more sensitive; extreme values may be limits of the assay; conditions: 72 h
IMC-1 (IL-2 20 ng/mL) [17] = assay: as above; conditions: 72 h
[18] = test system: normal primary NK cells, pool 1 (3 donors) (IL-2 2.5 ng/mL); assay: as above; conditions: 72 h
KHYG-1 (IL-2 2.5 ng/mL) [19] = assay: as above; conditions: 72 h
NK-YS (IL-2 2.5 ng/mL) [20] = assay: as above; conditions: 72 h
DERL-7 (IL-2 2.5 ng/mL) [21] = assay: as above; conditions: 72 h
[22] = test system: normal primary NK cells, pool 1 (3 donors), resting (IL-2 0 ng/mL); assay: as above; conditions: 72 h
KAI3 (IL-2 2.5 ng/mL) [23] = assay: as above; conditions: 72 h
NK-92 (IL-2 2.5 ng/mL) [24] = assay: as above; conditions: 72 h
YT (IL-2 2.5 ng/mL) [25] = assay: as above; conditions: 72 h
[26] = test system: normal primary NK cells, pool 2 (3 donors) (IL-2 2.5 ng/mL); assay: as above; conditions: 72 h
NKL (IL-2 2.5 ng/mL) [27] = assay: as above; conditions: 72 h
SNK-6 (IL-2 2.5 ng/mL) [28] = assay: as above; conditions: 72 h

COC1=CC(c2cc3ccccc3[nH]2)=N/C1=C\c1[nH]c(C)cc1C [Obatoclax] (max concentration tested 10000 nM)
percent inhibition of viability [%]
Conditions | 1 nM | 10 nM | 100 nM | 1000 nM | 10000 nM
DERL-7 (IL-2 2.5 ng/mL) [6] | -3.53 | -2.23 | 2.25 | 2.35 | 36.5
IMC-1 (IL-2 20 ng/mL) [2] | -4.53 | -1.62 | -0.16 | 4.8 | 18.5
KAI3 (IL-2 2.5 ng/mL) [8] | 2.78 | 2.46 | -1.6 | 14.8 | 41.8
KHYG-1 (IL-2 2.5 ng/mL) [4] | -3.69 | -0.55 | 0.4 | 15.8 | 35.2
NK-92 (IL-2 2.5 ng/mL) [9] | -5.85 | 7.72 | 16.4 | 50 | 77.5
NK-YS (IL-2 2.5 ng/mL) [5] | -4.05 | -1.77 | 1.63 | 13.8 | 26.2
NKL (IL-2 2.5 ng/mL) [12] | -2.53 | -11.6 | 25.5 | 67.5 | 84.2
SNK-6 (IL-2 2.5 ng/mL) [13] | -0.44 | 6.97 | -8.81 | 6.17 | 16.6
YT (IL-2 2.5 ng/mL) [10] | 0.99 | 0.48 | 1.63 | 21.2 | 48.1
[1] | -3.41 | -11.5 | 3.42 | 9.76 | 34.5
[3] | -0.48 | 0.81 | -4.45 | 6.95 | 39.1
[7] | -9.87 | -1.78 | -10.3 | 10 | 59
[11] | -4.7 | -5.9 | 5.89 | 6.17 | 37.3
[15] | 0.42 | 2.59 | 3.2 | 6.46 | 21.2

Conditions | drug sensitivity score
DERL-7 (IL-2 2.5 ng/mL) [21] | 2.1
IMC-1 (IL-2 20 ng/mL) [17] | 1.04
KAI3 (IL-2 2.5 ng/mL) [23] | 4.2
KHYG-1 (IL-2 2.5 ng/mL) [19] | 3.67
NK-92 (IL-2 2.5 ng/mL) [24] | 11.6
NK-YS (IL-2 2.5 ng/mL) [20] | 2.34
NKL (IL-2 2.5 ng/mL) [27] | 15.6
SNK-6 (IL-2 2.5 ng/mL) [28] | 0.94
YT (IL-2 2.5 ng/mL) [25] | 5.06
[14] | 1.2
[16] | 2.91
[18] | 3.07
[22] | 4.87
[26] | 2.84

COc1cc2c(NC3CCN(C(C)C)CC3)nc(N3CCC(F)(F)CC3)nc2cc1OCCCN1CCCC1 [UNC0642] (max concentration tested 10000 nM)
percent inhibition of viability [%]
Conditions | 1 nM | 10 nM | 100 nM | 1000 nM | 10000 nM
DERL-7 (IL-2 2.5 ng/mL) [6] | -0.28 | 1.37 | -1.94 | 0.05 | 99.9
IMC-1 (IL-2 20 ng/mL) [2] | -11.9 | -4.05 | -6.38 | 8.61 | 100
KAI3 (IL-2 2.5 ng/mL) [8] | -0.96 | 1.92 | 10.1 | 48.5 | 103
KHYG-1 (IL-2 2.5 ng/mL) [4] | -4.39 | -1.22 | -6.31 | 6.97 | 28.1
NK-92 (IL-2 2.5 ng/mL) [9] | -11 | -2.07 | -11.4 | 3.52 | 49
NK-YS (IL-2 2.5 ng/mL) [5] | -3.38 | -1.95 | 0.35 | 8.5 | 101
NKL (IL-2 2.5 ng/mL) [12] | -6.06 | -13.9 | -8.65 | 22.1 | 105
SNK-6 (IL-2 2.5 ng/mL) [13] | -9.05 | 11.3 | 2.25 | 25.3 | 99.3
YT (IL-2 2.5 ng/mL) [10] | -6.39 | -3.26 | -2.23 | 4.47 | 74.2
[1] | -1.76 | 4.79 | 4.65 | -5.45 | 100
[3] | -1.76 | 13.1 | 19.9 | 18.1 | 101
[7] | 9.19 | 22.7 | 14 | 28.9 | 98.6
[11] | -4.62 | 6.45 | -2.04 | -4.01 | 99.7
[15] | -4.11 | -7.96 | -1.75 | 10.2 | 100

Conditions | drug sensitivity score
DERL-7 (IL-2 2.5 ng/mL) [21] | 5.6
IMC-1 (IL-2 20 ng/mL) [17] | 6.92
KAI3 (IL-2 2.5 ng/mL) [23] | 11.3
KHYG-1 (IL-2 2.5 ng/mL) [19] | 2.2
NK-92 (IL-2 2.5 ng/mL) [24] | 3.1
NK-YS (IL-2 2.5 ng/mL) [20] | 6.94
NKL (IL-2 2.5 ng/mL) [27] | 9.05
SNK-6 (IL-2 2.5 ng/mL) [28] | 9.35
YT (IL-2 2.5 ng/mL) [25] | 4.75
[14] | 7.22
[16] | 5.16
[18] | 8.52
[22] | 9.04
[26] | 5.23
